Reference: ChEMBL document CHEMBL1201862, “PubChem BioAssay data set” (2004)
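How tested: cells in 96-well plates exposed to compound for 48 hours at five concentrations. GI50 = concentration required for 50% inhibition of growth.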 Active and inactive are the calls of the source. Cut-off read from the data, not from the text of the source: active = GI50 up to about 1.1 µM and inactive = higher.

How the values were obtained:
Assay in all cases: NCI-60 cell line screen, 48 h
NCI-H460 = test system: NCI-H460
NCI-H522 = test system: NCI-H522
MDA-N = test system: MDA-N
NCI-H23 = test system: NCI-H23
SNB-75 = test system: SNB-75
HOP-92 = test system: HOP-92
OVCAR-3 = test system: OVCAR-3
EKVX = test system: EKVX
ACHN = test system: ACHN
CCRF-CEM = test system: CCRF-CEM
XF498 = test system: XF498
UO-31 = test system: UO-31
SK-MEL-5 = test system: SK-MEL-5
SW-620 = test system: SW-620
K562 = test system: K562
SN12C = test system: SN12C
DU-145 = test system: DU-145
M14 = test system: M14
MDA-MB-435 = test system: MDA-MB-435
HCT-116 = test system: HCT-116

Measured: GI50

N#Cc1cccc(N2C(=O)C3C4C=CC(C3C2=O)C2C(=O)N(c3cccc(C#N)c3)C(=O)C42)c1 (stereo not given)
inactive: NCI-H460 > 63.1 µM | NCI-H522 22.7 µM | MDA-N > 100 µM | NCI-H23 27.6 µM | SNB-75 6.12 µM | HOP-92 15.2 µM | OVCAR-3 > 77.3 µM | EKVX > 100 µM | ACHN 40.7 µM | CCRF-CEM 44.8 µM | XF498 15.5 µM | UO-31 49.1 µM | SK-MEL-5 > 63.1 µM | SW-620 > 100 µM | K562 46.9 µM | SN12C > 39.8 µM | DU-145 > 100 µM | M14 59 µM | MDA-MB-435 > 100 µM | HCT-116 21 µM
